{"source": "patent US8852928B2", "about": "“LexA-based chemical-inducible gene expression system for use in transgenic animals” (Temasek Life Sciences Laboratory Limited, priority 2007, dated 2014)", "molecular_target": "T1, LexPR transactivator (Homo sapiens, UniProt P06401)", "T1 construct": "expressed in transfected cells; host or cells: germline-transgenic zebrafish (Danio rerio) carrying the Ds transposon driver cassette pDs(krt8:LPR-LOP:G4) or derivatives", "T1 sequence (P06401 640-914)": "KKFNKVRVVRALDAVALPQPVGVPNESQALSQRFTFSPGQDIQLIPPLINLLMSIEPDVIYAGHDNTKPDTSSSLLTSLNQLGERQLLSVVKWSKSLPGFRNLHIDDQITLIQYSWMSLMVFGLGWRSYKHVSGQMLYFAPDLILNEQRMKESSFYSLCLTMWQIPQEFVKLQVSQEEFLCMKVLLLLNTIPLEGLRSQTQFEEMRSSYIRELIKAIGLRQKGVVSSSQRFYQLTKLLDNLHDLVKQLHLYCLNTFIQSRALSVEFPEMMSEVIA", "assay": "Time required to switch off EGFP reporter expression after mifepristone withdrawal", "format": "in vivo, zebrafish", "design": "key to Reporter expression, RU486 incubation / Reporter expression after RU486 withdrawal / Reporter expression, continuous induction (time of RU486 incubation): +: Fluorescence signal is similar to the control.; ±: Fluorescence signal is obviously weaker that in control.; −: No EGFP fluorescence (except autofluorescence)observed using the fluorescent stereomicroscope", "from_the_text": "To avoid confusion, the corresponding developmental times are indicated. A Nikon SMZ1600 fluorescent stereomicroscope was used for rough estimation of the EGFP fluorescence."}
{"compound": "CC#C[C@]1(O)CC[C@H]2[C@@H]3CCC4=CC(=O)CCC4=C3[C@@H](c3ccc(N(C)C)cc3)C[C@@]21C", "note": "[mifepristone]", "values": [{"measurement": "Reporter expression, RU486 incubation", "setting": "1 nM, 1 hour RU486 incubation - withdrawal, at 1 h incubation, 37hpf", "result": "−"}, {"measurement": "Reporter expression after RU486 withdrawal", "setting": "1 nM, 1 hour RU486 incubation, 12 h after withdrawal, 49hpf", "result": "−"}, {"measurement": "Reporter expression after RU486 withdrawal", "setting": "1 nM, 1 hour RU486 incubation, 24 h after withdrawal, 61hpf", "result": "−"}, {"measurement": "Reporter expression after RU486 withdrawal", "setting": "1 nM, 1 hour RU486 incubation, 48 h after withdrawal, 85hpf", "result": "−"}, {"measurement": "Reporter expression after RU486 withdrawal", "setting": "1 nM, 1 hour RU486 incubation, 72 h after withdrawal, 109hpf", "result": "−"}, {"measurement": "Reporter expression after RU486 withdrawal", "setting": "1 nM, 1 hour RU486 incubation, 96 h after withdrawal, 133hpf", "result": "−"}, {"measurement": "Reporter expression after RU486 withdrawal", "setting": "1 nM, 1 hour RU486 incubation, 120 h after withdrawal, 157hpf", "result": "−"}, {"measurement": "Reporter expression after RU486 withdrawal", "setting": "1 nM, 1 hour RU486 incubation, 144 h after withdrawal, 181hpf", "result": "−"}, {"measurement": "Reporter expression, RU486 incubation", "setting": "1 nM, 12 hours RU486 incubation - withdrawal, at 12 h incubation, 48hpf", "result": "−"}, {"measurement": "Reporter expression after RU486 withdrawal", "setting": "1 nM, 12 hours RU486 incubation, 12 h after withdrawal, 60hpf", "result": "±"}, {"measurement": "Reporter expression after RU486 withdrawal", "setting": "1 nM, 12 hours RU486 incubation, 24 h after withdrawal, 72hpf", "result": "−"}, {"measurement": "Reporter expression after RU486 withdrawal", "setting": "1 nM, 12 hours RU486 incubation, 48 h after withdrawal, 96hpf", "result": "−"}, {"measurement": "Reporter expression after RU486 withdrawal", "setting": "1 nM, 12 hours RU486 incubation, 72 h after withdrawal, 120hpf", "result": "−"}, {"measurement": "Reporter expression after RU486 withdrawal", "setting": "1 nM, 12 hours RU486 incubation, 96 h after withdrawal, 144hpf", "result": "−"}, {"measurement": "Reporter expression after RU486 withdrawal", "setting": "1 nM, 12 hours RU486 incubation, 120 h after withdrawal, 168hpf", "result": "−"}, {"measurement": "Reporter expression after RU486 withdrawal", "setting": "1 nM, 12 hours RU486 incubation, 144 h after withdrawal, 192hpf", "result": "−"}, {"measurement": "Minimal time after RU486 withdrawal to turn off the reporter expression", "setting": "1 nM, 12 hours induction", "result": 1, "unit": "days"}, {"measurement": "Reporter expression, continuous induction (time of RU486 incubation)", "setting": "1 nM, 24-156 h incubation, 60-192 hpf", "result": "±"}, {"measurement": "Reporter expression, continuous induction (time of RU486 incubation)", "setting": "1 nM, 1 h incubation", "result": "−"}, {"measurement": "Reporter expression, continuous induction (time of RU486 incubation)", "setting": "1 nM, 12 h incubation", "result": "−"}, {"measurement": "Reporter expression, continuous induction (time of RU486 incubation)", "setting": "1 nM, 13 h incubation, 49hpf", "result": "−"}, {"measurement": "Reporter expression, continuous induction (time of RU486 incubation)", "setting": "1 nM, 24 h incubation, 60hpf", "result": "±"}, {"measurement": "Reporter expression, RU486 incubation", "setting": "10 nM, 1 hour RU486 incubation - withdrawal, at 1 h incubation, 37hpf", "result": "−"}, {"measurement": "Reporter expression after RU486 withdrawal", "setting": "10 nM, 1 hour RU486 incubation, 12 h after withdrawal, 49hpf", "result": "±"}, {"measurement": "Reporter expression after RU486 withdrawal", "setting": "10 nM, 1 hour RU486 incubation, 24 h after withdrawal, 61hpf", "result": "−"}, {"measurement": "Reporter expression after RU486 withdrawal", "setting": "10 nM, 1 hour RU486 incubation, 48 h after withdrawal, 85hpf", "result": "−"}, {"measurement": "Reporter expression after RU486 withdrawal", "setting": "10 nM, 1 hour RU486 incubation, 72 h after withdrawal, 109hpf", "result": "−"}, {"measurement": "Reporter expression after RU486 withdrawal", "setting": "10 nM, 1 hour RU486 incubation, 96 h after withdrawal, 133hpf", "result": "−"}, {"measurement": "Reporter expression after RU486 withdrawal", "setting": "10 nM, 1 hour RU486 incubation, 120 h after withdrawal, 157hpf", "result": "−"}, {"measurement": "Reporter expression after RU486 withdrawal", "setting": "10 nM, 1 hour RU486 incubation, 144 h after withdrawal, 181hpf", "result": "−"}, {"measurement": "Minimal time after RU486 withdrawal to turn off the reporter expression", "setting": "10 nM, 1 hour induction", "result": 1, "unit": "days"}, {"measurement": "Reporter expression, RU486 incubation", "setting": "10 nM, 12 hours RU486 incubation - withdrawal, at 12 h incubation, 48hpf", "result": "±"}, {"measurement": "Reporter expression after RU486 withdrawal", "setting": "10 nM, 12 hours RU486 incubation, 12 h after withdrawal, 60hpf", "result": "+"}, {"measurement": "Reporter expression after RU486 withdrawal", "setting": "10 nM, 12 hours RU486 incubation, 24 h after withdrawal, 72hpf", "result": "±"}, {"measurement": "Reporter expression after RU486 withdrawal", "setting": "10 nM, 12 hours RU486 incubation, 48 h after withdrawal, 96hpf", "result": "−"}, {"measurement": "Reporter expression after RU486 withdrawal", "setting": "10 nM, 12 hours RU486 incubation, 72 h after withdrawal, 120hpf", "result": "−"}, {"measurement": "Reporter expression after RU486 withdrawal", "setting": "10 nM, 12 hours RU486 incubation, 96 h after withdrawal, 144hpf", "result": "−"}, {"measurement": "Reporter expression after RU486 withdrawal", "setting": "10 nM, 12 hours RU486 incubation, 120 h after withdrawal, 168hpf", "result": "−"}, {"measurement": "Reporter expression after RU486 withdrawal", "setting": "10 nM, 12 hours RU486 incubation, 144 h after withdrawal, 192hpf", "result": "−"}, {"measurement": "Minimal time after RU486 withdrawal to turn off the reporter expression", "setting": "10 nM, 12 hours induction", "result": 2, "unit": "days"}, {"measurement": "Reporter expression, continuous induction (time of RU486 incubation)", "setting": "10 nM, 24-156 h incubation, 60-192 hpf", "result": "+"}, {"measurement": "Reporter expression, continuous induction (time of RU486 incubation)", "setting": "10 nM, 1 h incubation", "result": "−"}, {"measurement": "Reporter expression, continuous induction (time of RU486 incubation)", "setting": "10 nM, 12 h incubation", "result": "±"}, {"measurement": "Reporter expression, continuous induction (time of RU486 incubation)", "setting": "10 nM, 13 h incubation, 49hpf", "result": "±"}, {"measurement": "Reporter expression, continuous induction (time of RU486 incubation)", "setting": "10 nM, 24 h incubation, 60hpf", "result": "+"}, {"measurement": "Reporter expression, RU486 incubation", "setting": "100 nM, 1 hour RU486 incubation - withdrawal, at 1 h incubation, 37hpf", "result": "−"}, {"measurement": "Reporter expression after RU486 withdrawal", "setting": "100 nM, 1 hour RU486 incubation, 12 h after withdrawal, 49hpf", "result": "+"}, {"measurement": "Reporter expression after RU486 withdrawal", "setting": "100 nM, 1 hour RU486 incubation, 24 h after withdrawal, 61hpf", "result": "+"}, {"measurement": "Reporter expression after RU486 withdrawal", "setting": "100 nM, 1 hour RU486 incubation, 48 h after withdrawal, 85hpf", "result": "−"}, {"measurement": "Reporter expression after RU486 withdrawal", "setting": "100 nM, 1 hour RU486 incubation, 72 h after withdrawal, 109hpf", "result": "−"}, {"measurement": "Reporter expression after RU486 withdrawal", "setting": "100 nM, 1 hour RU486 incubation, 96 h after withdrawal, 133hpf", "result": "−"}, {"measurement": "Reporter expression after RU486 withdrawal", "setting": "100 nM, 1 hour RU486 incubation, 120 h after withdrawal, 157hpf", "result": "−"}]}
